# According to PubChem BioAssay (NCI):
# Several values for one entry are separate records, joined by “and”; a condition that tells them apart may be missing. Identical values can stand only once.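 Following 48 hours of exposure in 96-well plates, responses at five concentrations were used to interpolate endpoints linearly. The concentration for 50% growth inhibition is given as GI50. TGI: total growth inhibition.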
# How the values were obtained:
# Assay in all cases: DTP human tumour cell line panel, 48 h
# [1] = system: A549 NSCLC
# [2] = system: HT29 colon
# [3] = system: K-562 leukemia
# [4] = system: KM12 colon
# [5] = system: NCI-H226 lung
# [6] = system: OVCAR-3 ovarian
# [7] = system: SF-268 CNS
# [8] = system: SK-MEL-5 melanoma
# [9] = system: U251 CNS
# [10] = system: UACC-62 melanoma
SMILES,TGI [1],TGI [2],TGI [3] [µM],TGI [4],TGI [5],TGI [6],TGI [7],TGI [8],TGI [9],TGI [10],GI50 [1],GI50 [2],GI50 [3],GI50 [4],GI50 [5],GI50 [6],GI50 [7],GI50 [8] [µM],GI50 [9],GI50 [10] [µM]
COc1ccc2[nH]c3c4c(cc(-c5ccccc5)c3c2c1)C(=O)N(c1ccccc1)C4=O,> 100 µM,> 100 µM,> 100,> 100 µM,> 100 µM,55.2 µM,97.1 µM,> 100 µM,36.7 µM,> 90.6 µM,,,,,,,,,,
C/C(=N\O)c1cccc(Nc2cc(-c3ccccc3)nc3c(O)cccc23)c1,23.5 µM,42.7 µM,> 53.5,22.9 µM,37.5 µM,14.5 µM,39.5 µM,16 µM,15.8 µM,16.8 µM,2.37 µM,12.3 µM,0.581 µM,0.836 µM,7.37 µM,1.1 µM,4.38 µM,1.53,2.35 µM,1.64
C=C(COC(C)=O)CC(/C=C(\C)CC/C=C(\C)CO)OC(C)=O (stereo not given),> 100 µM,> 100 µM,> 100,> 100 µM,> 100 µM,> 100 µM,> 100 µM,> 100 µM,> 100 µM,> 100 µM,,,,,,,,,,
O=C(/C=C/c1cccc(S(=O)(=O)Nc2ccccc2)c1)NO,17.8 µM and 44.4 µM,15.9 µM and > 15.8 µM,> 100,9.14 µM and 10.7 µM,11.5 µM and 5.11 µM,4.16 µM and 3.76 µM,15.6 µM and 8.91 µM,1.03 µM and 0.192 µM,4.38 µM and 10.7 µM,1.53 µM and 0.196 µM,0.459 µM and 0.0805 µM,0.25 µM and 1.15 µM,0.325 µM and 0.0593 µM,0.426 µM and 0.0714 µM,2.34 µM and 0.694 µM,0.565 µM and 0.512 µM,1.22 µM and 0.324 µM,,0.597 µM and 0.496 µM,
COc1ccccc1NC(=O)C(=O)Cc1cnc2ccccc2n1,> 100 µM,> 100 µM,> 100,> 100 µM,> 100 µM,> 100 µM,> 100 µM,> 100 µM,> 100 µM,> 100 µM,,,,,,,,,,
C=C(CN1CCN(c2ccccc2C(F)(F)F)CC1)c1ccc(C(=O)Nc2ccccc2N)cc1,33.8 µM,20.2 µM,> 25.8,11.7 µM,48.1 µM,38.3 µM,> 47 µM,9.83 µM,> 68.1 µM,> 93.7 µM,4.17 µM,4.09 µM,1.54 µM,2.04 µM,7.79 µM,5.92 µM,4.55 µM,3,4.64 µM,9.16
Brc1ccc(Nc2nc3ccccc3nc2Nc2ccc(Br)cc2)cc1,11 µM,10.9 µM,11.6,8.96 µM,10.1 µM,1.54 µM,13.3 µM,3.11 µM,2.22 µM,5.37 µM,0.393 µM,0.404 µM,0.786 µM,1.4 µM,2.75 µM,0.401 µM,1.69 µM,1.56,0.429 µM,1.94
O=C(O)c1ccc(C(=O)O)c(C(=O)O)c1.[NH-]C1CCCCC1[NH-].[Pt+2],39 µM,54.9 µM,88.9,74.6 µM,32.2 µM,39.9 µM,> 87.4 µM,14.5 µM,59.1 µM,36 µM,1.87 µM,0.998 µM,,14.3 µM,2.02 µM,8.64 µM,7.54 µM,1.43,8.84 µM,2.82
CC(=O)OCC1OC([Se-])C(OC(C)=O)C(OC(C)=O)C1OC(C)=O.N#CCC[PH+](CCC#N)CCC#N.[Au+] (stereo not given),42.4 µM,39.7 µM,28.3,> 74.5 µM,16.3 µM,49.7 µM,> 100 µM,15.9 µM,> 48.8 µM,30.6 µM,9.09 µM,4.73 µM,3.55 µM,10.3 µM,3.73 µM,7.3 µM,10.1 µM,3.43,10.9 µM,5.12
CCOC(=O)[C@@H](C)C[C@H](Cc1ccccc1)NC(=O)c1csc([C@@H](C[C@H](C(C)C)N(C)C(=O)[C@@H](NC(=O)[C@H]2C[C@H](O)CCN2C)C(C)C)OC(C)=O)n1,> 16.7 µM,> 16.7 µM,> 16.7,,0.34 µM,,> 16.7 µM,0.13 µM,> 16.7 µM,> 16.7 µM,0.0356 µM,0.0023 µM,0.00252 µM,0.0023 µM,0.0105 µM,< 0.00167 µM,0.00881 µM,0.00175,0.00614 µM,< 0.00167
CCCCN(CCCC)CC(C(=O)Nc1ccc([N+](=O)[O-])cc1[N+](=O)[O-])/C(C)=N\NC(=O)C[N+](C)(C)C (stereo not given),> 100 µM,> 100 µM,> 100,> 100 µM,> 100 µM,> 100 µM,> 100 µM,> 100 µM,> 100 µM,> 100 µM,,,,,,,,,,
O=C1/C(=C\c2ccccc2)CN(C(=O)c2ccccc2)C/C1=C\c1ccccc1,16.3 µM,4.09 µM,> 100,3.4 µM,> 100 µM,6.34 µM,14.8 µM,3.06 µM,4.44 µM,3.42 µM,3.63 µM,1.91 µM,1.67 µM,1.79 µM,19.3 µM,2.69 µM,3.4 µM,1.64,1.92 µM,1.69
CCC(C)CC(C)C(=O)c1c(O)ccn(O)c1=O (stereo not given),36.3 µM,> 100 µM,> 100,> 100 µM,75.3 µM,45.3 µM,45.3 µM,6.1 µM,> 100 µM,6.74 µM,1.78 µM,27.2 µM,0.631 µM,3.37 µM,15.8 µM,0.415 µM,1.29 µM,1.53,2.14 µM,2.27
OCCCc1cnco1,> 100 µM,> 100 µM,> 100,> 100 µM,> 100 µM,> 100 µM,> 100 µM,> 100 µM,> 100 µM,> 100 µM,,,,,,,,,,
